# Key:
# [1] = target: T1, CDC7/ASK (Homo sapiens, UniProt O00311); experiment: Kinase panel (Carna); assay type: biochemical
# T1 construct: purchased Carna Biosciences
# Description: (§1) Detailed information on the assay conditions is available on the website of Carna Biosciences (http://www.carnabio.com).
# [2] = test system: other 13 kinases; experiment: Endogenous kinases in intact HEK293 cells, western blot; assay type: cell-based; conditions: 3 days
# Description: The results are presented as means±s.d. (n=4). […] Representative data from the duplicate experiments are shown.
# [3] = target: T2, HIPK2 (Homo sapiens, UniProt Q9H2X6); experiment: Kinase panel (Carna); assay type: biochemical
# T2 construct: purchased Carna Biosciences
# Description: as §1
# [4] = target: T3, PIM3 (Homo sapiens, UniProt Q86V86); experiment: Kinase panel (Carna); assay type: biochemical; conditions: 10 µM FINDY
# T3 construct: purchased Carna Biosciences
# [5] = target: T4, IRR (Homo sapiens, UniProt P14616); experiment: Kinase panel (Carna); assay type: biochemical
# T4 construct: purchased Carna Biosciences
# Description: as §1
# [6] = target: T5, ACK (Homo sapiens, UniProt Q07912); experiment: Kinase panel (Carna); assay type: biochemical
# T5 construct: purchased Carna Biosciences
# Description: as §1
# [7] = target: T6, MAPKAPK3 (Homo sapiens, UniProt Q16644); experiment: Kinase panel (Carna); assay type: biochemical
# T6 construct: purchased Carna Biosciences
# [8] = target: T7, PRKX (Homo sapiens, UniProt P51817); experiment: Kinase panel (Carna); assay type: biochemical
# T7 construct: purchased Carna Biosciences
# [9] = target: T8, NEK4 (Homo sapiens, UniProt P51957); experiment: Kinase panel (Carna); assay type: biochemical
# T8 construct: purchased Carna Biosciences
# [10] = target: T9, BRAF_Cascade (Homo sapiens, UniProt P15056); experiment: Kinase panel (Carna); assay type: biochemical
# T9 construct: purchased Carna Biosciences
# Description: as §1
# [11] = target: T10, MLK1_Cascade (Homo sapiens, UniProt P80192); experiment: Kinase panel (Carna); assay type: biochemical
# T10 construct: purchased Carna Biosciences
# Description: as §1
# [12] = target: T11, MRCKα (Homo sapiens, UniProt Q5VT25); experiment: Kinase panel (Carna); assay type: biochemical
# T11 construct: purchased Carna Biosciences
# [13] = target: T12, NEK2 (Homo sapiens, UniProt P51955); experiment: Kinase panel (Carna); assay type: biochemical
# T12 construct: purchased Carna Biosciences
# [14] = target: T13, ABL (Homo sapiens, UniProt P00519); experiment: Kinase panel (Carna); assay type: biochemical
# T13 construct: purchased Carna Biosciences
# Description: as §1
# [15] = target: T14, HIPK4 (Homo sapiens, UniProt Q8NE63); experiment: Kinase panel (Carna); assay type: biochemical
# T14 construct: purchased Carna Biosciences
# Description: as §1
# [16] = target: T15, CK1α (Homo sapiens, UniProt P48729); experiment: Kinase panel (Carna); assay type: biochemical
# T15 construct: purchased Carna Biosciences
# [17] = target: T16, MLK3_Cascade (Homo sapiens, UniProt Q16584); experiment: Kinase panel (Carna); assay type: biochemical
# T16 construct: purchased Carna Biosciences
# Description: as §1
# [18] = target: T17, PASK (Homo sapiens, UniProt Q96RG2); experiment: Kinase panel (Carna); assay type: biochemical
# T17 construct: purchased Carna Biosciences
# Description: as §1
# [19] = target: T18, FGFR1 (Homo sapiens, UniProt P11362); experiment: Kinase panel (Carna); assay type: biochemical
# T18 construct: purchased Carna Biosciences
# [20] = target: T19, PAK5 (Homo sapiens, UniProt Q9P286); experiment: Kinase panel (Carna); assay type: biochemical
# T19 construct: purchased Carna Biosciences
# Description: as §1
# [21] = target: T20, AurB (Homo sapiens, UniProt Q96GD4); experiment: Kinase panel (Carna); assay type: biochemical
# T20 construct: purchased Carna Biosciences
# Description: as §1
# [22] = target: T21, PAK6 (Homo sapiens, UniProt Q9NQU5); experiment: Kinase panel (Carna); assay type: biochemical
# T21 construct: purchased Carna Biosciences
# Description: as §1
# [23] = target: T22, PGK (Homo sapiens, UniProt Q13976); experiment: Kinase panel (Carna); assay type: biochemical
# T22 construct: purchased Carna Biosciences
# Description: as §1
# [24] = target: T23, LTK (Homo sapiens, UniProt P29376); experiment: Kinase panel (Carna); assay type: biochemical
# T23 construct: purchased Carna Biosciences
# Description: as §1
# [25] = target: T24, GSK3α (Homo sapiens, UniProt P49840); experiment: Kinase panel (Carna); assay type: biochemical
# T24 construct: purchased Carna Biosciences
# [26] = target: T25, FLT1 (Homo sapiens, UniProt P17948); experiment: Kinase panel (Carna); assay type: biochemical
# T25 construct: purchased Carna Biosciences
# Description: as §1
# [27] = target: T26, MGC42105 (Homo sapiens, UniProt Q8IY84); experiment: Kinase panel (Carna); assay type: biochemical
# T26 construct: purchased Carna Biosciences
# Description: as §1
# [28] = target: T27, EPHA2 (Homo sapiens, UniProt P29317); experiment: Kinase panel (Carna); assay type: biochemical
# T27 construct: purchased Carna Biosciences
# [29] = target: T28, CaMK2γ (Homo sapiens, UniProt Q13555); experiment: Kinase panel (Carna); assay type: biochemical
# T28 construct: purchased Carna Biosciences
# [30] = target: T29, HGK (Homo sapiens, UniProt O95819); experiment: Kinase panel (Carna); assay type: biochemical
# T29 construct: purchased Carna Biosciences
# [31] = target: T30, PAK3 (Homo sapiens, UniProt O75914); experiment: Kinase panel (Carna); assay type: biochemical
# T30 construct: purchased Carna Biosciences
# Description: as §1
# [32] = target: T31, WNK1 (Homo sapiens, UniProt Q9H4A3); experiment: Kinase panel (Carna); assay type: biochemical
# T31 construct: purchased Carna Biosciences
# Description: as §1
# [33] = target: T32, PKCβ2 (Homo sapiens, UniProt P05771); experiment: Kinase panel (Carna); assay type: biochemical
# T32 construct: purchased Carna Biosciences
# Description: as §1
# [34] = target: T33, TNK1 (Homo sapiens, UniProt Q13470); experiment: Kinase panel (Carna); assay type: biochemical
# T33 construct: purchased Carna Biosciences
# Description: as §1
# [35] = target: T34, MSK2 (Homo sapiens, UniProt O75676); experiment: Kinase panel (Carna); assay type: biochemical
# T34 construct: purchased Carna Biosciences
# Description: as §1
# [36] = target: T35, CDK9/CycT1 (Homo sapiens, UniProt P50750); experiment: Kinase panel (Carna); assay type: biochemical
# T35 construct: purchased Carna Biosciences
# Description: as §1
# [37] = target: T36, AMPKα1/β1/γ1 (Homo sapiens, UniProt Q13131); experiment: Kinase panel (Carna); assay type: biochemical
# T36 construct: purchased Carna Biosciences
# Description: as §1
# [38] = target: T37, PBK (Homo sapiens, UniProt Q96KB5); experiment: Kinase panel (Carna); assay type: biochemical
# T37 construct: purchased Carna Biosciences
# Description: as §1
# [39] = target: T38, TSSK3 (Homo sapiens, UniProt Q96PN8); experiment: Kinase panel (Carna); assay type: biochemical
# T38 construct: purchased Carna Biosciences
# Description: as §1
# [40] = target: T39, FGFR3 (Homo sapiens, UniProt P22607); experiment: Kinase panel (Carna); assay type: biochemical
# T39 construct: purchased Carna Biosciences
# [41] = target: T40, BTK (Homo sapiens, UniProt Q06187); experiment: Kinase panel (Carna); assay type: biochemical
# T40 construct: purchased Carna Biosciences
# Description: as §1
# [42] = target: T41, DDR2 (Homo sapiens, UniProt Q16832); experiment: Kinase panel (Carna); assay type: biochemical
# T41 construct: purchased Carna Biosciences
# [43] = target: T42, HIPK3 (Homo sapiens, UniProt Q9H422); experiment: Kinase panel (Carna); assay type: biochemical
# T42 construct: purchased Carna Biosciences
# Description: as §1
# [44] = target: T43, MNK1 (Homo sapiens, UniProt Q9BUB5); experiment: Kinase panel (Carna); assay type: biochemical
# T43 construct: purchased Carna Biosciences
# T13 sequence (P00519 whole entry): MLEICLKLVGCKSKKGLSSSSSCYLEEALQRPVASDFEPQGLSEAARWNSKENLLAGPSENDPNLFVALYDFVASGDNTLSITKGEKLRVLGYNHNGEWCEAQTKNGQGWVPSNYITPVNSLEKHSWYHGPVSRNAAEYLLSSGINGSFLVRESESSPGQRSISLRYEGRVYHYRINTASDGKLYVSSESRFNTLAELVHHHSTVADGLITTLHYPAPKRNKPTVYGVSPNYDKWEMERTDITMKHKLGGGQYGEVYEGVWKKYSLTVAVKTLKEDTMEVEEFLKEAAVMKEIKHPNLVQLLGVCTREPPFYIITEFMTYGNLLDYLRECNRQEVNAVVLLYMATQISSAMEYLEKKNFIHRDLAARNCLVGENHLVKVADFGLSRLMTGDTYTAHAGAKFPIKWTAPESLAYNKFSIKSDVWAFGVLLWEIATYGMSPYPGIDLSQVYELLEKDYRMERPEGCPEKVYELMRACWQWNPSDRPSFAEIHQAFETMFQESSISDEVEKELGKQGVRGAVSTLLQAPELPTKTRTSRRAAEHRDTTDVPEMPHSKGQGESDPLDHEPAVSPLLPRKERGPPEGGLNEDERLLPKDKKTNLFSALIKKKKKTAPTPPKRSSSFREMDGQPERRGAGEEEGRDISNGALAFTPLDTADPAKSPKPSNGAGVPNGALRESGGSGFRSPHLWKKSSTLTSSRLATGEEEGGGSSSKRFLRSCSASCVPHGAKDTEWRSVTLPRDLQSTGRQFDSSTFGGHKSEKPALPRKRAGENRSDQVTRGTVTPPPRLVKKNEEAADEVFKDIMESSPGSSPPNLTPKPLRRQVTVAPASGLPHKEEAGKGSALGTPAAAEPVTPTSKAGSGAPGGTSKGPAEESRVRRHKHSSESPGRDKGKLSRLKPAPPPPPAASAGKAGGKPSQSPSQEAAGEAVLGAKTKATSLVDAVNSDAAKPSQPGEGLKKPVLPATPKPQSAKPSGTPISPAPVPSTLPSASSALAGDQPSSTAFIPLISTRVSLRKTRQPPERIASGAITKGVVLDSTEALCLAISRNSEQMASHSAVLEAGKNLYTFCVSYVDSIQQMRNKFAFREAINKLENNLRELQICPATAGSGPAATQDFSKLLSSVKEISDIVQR
# T37 sequence (Q96KB5 whole entry): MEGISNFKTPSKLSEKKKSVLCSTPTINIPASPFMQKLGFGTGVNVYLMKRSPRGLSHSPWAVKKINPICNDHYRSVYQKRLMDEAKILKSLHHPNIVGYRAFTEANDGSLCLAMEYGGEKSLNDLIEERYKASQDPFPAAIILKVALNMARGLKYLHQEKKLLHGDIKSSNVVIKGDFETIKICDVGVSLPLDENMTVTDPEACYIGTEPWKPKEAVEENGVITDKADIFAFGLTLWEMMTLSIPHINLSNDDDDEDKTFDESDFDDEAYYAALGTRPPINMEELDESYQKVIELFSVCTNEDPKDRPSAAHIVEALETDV
# T23 sequence (P29376 17-864): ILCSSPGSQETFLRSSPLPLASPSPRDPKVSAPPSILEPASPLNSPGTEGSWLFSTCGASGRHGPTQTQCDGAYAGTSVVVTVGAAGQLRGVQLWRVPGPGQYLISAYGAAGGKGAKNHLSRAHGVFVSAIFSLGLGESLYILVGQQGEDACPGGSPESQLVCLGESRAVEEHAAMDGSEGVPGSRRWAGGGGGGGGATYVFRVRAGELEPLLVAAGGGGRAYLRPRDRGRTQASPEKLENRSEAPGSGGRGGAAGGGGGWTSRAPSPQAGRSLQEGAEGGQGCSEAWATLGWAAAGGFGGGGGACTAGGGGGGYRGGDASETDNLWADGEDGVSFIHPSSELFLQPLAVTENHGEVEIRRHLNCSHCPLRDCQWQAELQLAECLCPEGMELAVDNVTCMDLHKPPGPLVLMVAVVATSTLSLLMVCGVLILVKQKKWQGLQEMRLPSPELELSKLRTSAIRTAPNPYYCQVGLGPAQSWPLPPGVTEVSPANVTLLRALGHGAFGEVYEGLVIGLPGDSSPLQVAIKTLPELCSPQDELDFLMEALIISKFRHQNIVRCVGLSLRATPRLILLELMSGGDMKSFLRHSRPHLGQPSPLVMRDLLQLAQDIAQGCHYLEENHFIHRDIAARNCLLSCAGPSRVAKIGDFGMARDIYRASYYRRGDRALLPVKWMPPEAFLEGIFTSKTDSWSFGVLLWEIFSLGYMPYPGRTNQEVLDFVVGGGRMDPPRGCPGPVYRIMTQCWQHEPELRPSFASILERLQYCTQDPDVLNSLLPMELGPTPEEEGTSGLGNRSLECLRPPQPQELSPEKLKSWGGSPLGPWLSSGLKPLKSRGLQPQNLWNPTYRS
# T14 sequence (Q8NE63 whole entry): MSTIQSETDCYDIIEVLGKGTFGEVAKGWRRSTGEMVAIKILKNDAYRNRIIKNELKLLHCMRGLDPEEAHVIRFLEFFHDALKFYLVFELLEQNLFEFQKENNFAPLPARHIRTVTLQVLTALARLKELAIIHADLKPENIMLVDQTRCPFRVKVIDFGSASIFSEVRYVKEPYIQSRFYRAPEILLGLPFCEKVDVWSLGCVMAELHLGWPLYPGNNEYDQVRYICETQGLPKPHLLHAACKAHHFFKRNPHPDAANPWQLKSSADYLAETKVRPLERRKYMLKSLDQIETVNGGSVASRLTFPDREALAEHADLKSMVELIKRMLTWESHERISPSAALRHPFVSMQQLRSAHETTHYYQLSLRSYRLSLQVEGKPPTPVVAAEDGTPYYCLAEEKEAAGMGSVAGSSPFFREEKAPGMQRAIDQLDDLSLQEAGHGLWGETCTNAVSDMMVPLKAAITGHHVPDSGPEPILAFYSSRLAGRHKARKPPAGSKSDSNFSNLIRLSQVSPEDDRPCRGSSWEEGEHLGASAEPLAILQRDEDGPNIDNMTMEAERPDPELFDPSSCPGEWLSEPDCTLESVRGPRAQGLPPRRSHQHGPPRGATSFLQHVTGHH
# T29 sequence (O95819 whole entry): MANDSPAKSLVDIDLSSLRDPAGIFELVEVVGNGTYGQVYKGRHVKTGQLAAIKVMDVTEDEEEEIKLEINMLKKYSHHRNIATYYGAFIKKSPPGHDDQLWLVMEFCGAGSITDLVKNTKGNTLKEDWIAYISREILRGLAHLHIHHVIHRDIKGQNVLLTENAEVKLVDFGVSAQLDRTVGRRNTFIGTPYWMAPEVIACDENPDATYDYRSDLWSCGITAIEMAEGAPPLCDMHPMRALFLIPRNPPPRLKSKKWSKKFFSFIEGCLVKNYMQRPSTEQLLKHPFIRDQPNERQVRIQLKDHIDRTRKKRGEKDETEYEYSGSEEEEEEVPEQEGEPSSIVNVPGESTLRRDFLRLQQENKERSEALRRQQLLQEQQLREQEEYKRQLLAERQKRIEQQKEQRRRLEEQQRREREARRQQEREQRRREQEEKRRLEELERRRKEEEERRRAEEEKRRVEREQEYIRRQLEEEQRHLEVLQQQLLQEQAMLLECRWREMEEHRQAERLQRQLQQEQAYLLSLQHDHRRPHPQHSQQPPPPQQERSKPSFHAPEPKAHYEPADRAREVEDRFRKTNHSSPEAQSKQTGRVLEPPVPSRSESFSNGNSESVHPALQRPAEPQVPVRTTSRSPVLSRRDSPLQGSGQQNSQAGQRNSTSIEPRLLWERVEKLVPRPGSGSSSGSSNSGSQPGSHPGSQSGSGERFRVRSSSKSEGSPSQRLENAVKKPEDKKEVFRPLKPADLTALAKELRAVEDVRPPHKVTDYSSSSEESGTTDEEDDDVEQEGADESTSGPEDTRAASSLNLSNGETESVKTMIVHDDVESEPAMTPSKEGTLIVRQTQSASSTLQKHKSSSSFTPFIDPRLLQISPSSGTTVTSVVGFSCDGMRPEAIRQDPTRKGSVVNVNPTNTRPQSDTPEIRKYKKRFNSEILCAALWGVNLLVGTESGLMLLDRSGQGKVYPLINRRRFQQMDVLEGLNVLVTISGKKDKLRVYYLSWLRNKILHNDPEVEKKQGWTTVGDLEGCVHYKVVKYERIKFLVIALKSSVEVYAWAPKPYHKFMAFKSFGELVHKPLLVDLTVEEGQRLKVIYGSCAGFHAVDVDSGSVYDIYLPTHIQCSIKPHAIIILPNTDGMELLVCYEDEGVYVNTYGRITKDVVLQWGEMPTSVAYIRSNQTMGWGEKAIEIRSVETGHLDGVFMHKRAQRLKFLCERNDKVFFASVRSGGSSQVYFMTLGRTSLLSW
# T21 sequence (Q9NQU5 whole entry): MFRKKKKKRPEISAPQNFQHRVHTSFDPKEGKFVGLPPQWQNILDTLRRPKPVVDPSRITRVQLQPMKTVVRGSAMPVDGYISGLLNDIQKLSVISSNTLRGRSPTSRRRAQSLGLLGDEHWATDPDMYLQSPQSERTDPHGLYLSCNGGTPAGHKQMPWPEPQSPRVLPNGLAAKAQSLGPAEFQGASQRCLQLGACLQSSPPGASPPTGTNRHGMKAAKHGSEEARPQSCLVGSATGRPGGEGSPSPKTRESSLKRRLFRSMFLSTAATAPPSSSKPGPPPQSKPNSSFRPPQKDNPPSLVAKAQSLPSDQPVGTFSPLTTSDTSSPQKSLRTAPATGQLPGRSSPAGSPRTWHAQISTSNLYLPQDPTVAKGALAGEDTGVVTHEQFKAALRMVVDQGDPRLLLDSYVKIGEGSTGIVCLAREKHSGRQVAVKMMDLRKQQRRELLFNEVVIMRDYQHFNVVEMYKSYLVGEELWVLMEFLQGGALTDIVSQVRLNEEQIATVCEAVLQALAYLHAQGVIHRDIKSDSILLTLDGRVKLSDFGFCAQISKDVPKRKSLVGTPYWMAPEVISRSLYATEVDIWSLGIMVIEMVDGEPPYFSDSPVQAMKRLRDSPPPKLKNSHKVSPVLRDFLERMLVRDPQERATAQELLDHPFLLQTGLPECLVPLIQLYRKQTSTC
smiles,measurement,setting,value
COc1ccc(/C=C2\SC(=S)NC2=O)cc1C#C[Si](C)(C)C [FINDY],inhibition at 10 µM,[1],14.1%
same,endogenous expression of the other 13 kinases,[2],no alteration
same,inhibition at 10 µM,[3],6.2%
same,inhibition at 10 µM,[4],83.1%
same,inhibition at 10 µM,[5],3%
same,inhibition at 10 µM,[6],-2.2%
same,inhibition at 10 µM,[7],29.2%
same,inhibition at 10 µM,[8],3%
same,inhibition at 10 µM,[9],6.8%
same,inhibition at 10 µM,[10],33.9%
same,inhibition at 10 µM,[11],48.7%
same,inhibition at 10 µM,[12],2.7%
same,inhibition at 10 µM,[13],-5.1%
same,inhibition at 10 µM,[14],13%
same,inhibition at 10 µM,[15],16.6%
same,inhibition at 10 µM,[16],6.1%
same,inhibition at 10 µM,[17],40.5%
same,inhibition at 10 µM,[18],11.9%
same,inhibition at 10 µM,[19],37%
same,inhibition at 10 µM,[20],-7%
same,inhibition at 10 µM,[21],35.7%
same,inhibition at 10 µM,[22],-145%
same,inhibition at 10 µM,[23],2.6%
same,inhibition at 10 µM,[24],4.6%
same,inhibition at 10 µM,[25],43.4%
same,inhibition at 10 µM,[26],6.6%
same,inhibition at 10 µM,[27],12.5%
same,inhibition at 10 µM,[28],16.3%
same,inhibition at 10 µM,[29],-4.6%
same,inhibition at 10 µM,[30],13.4%
same,inhibition at 10 µM,[31],-14.7%
same,inhibition at 10 µM,[32],12.6%
same,inhibition at 10 µM,[33],-2.3%
same,inhibition at 10 µM,[34],7.3%
same,inhibition at 10 µM,[35],20.8%
same,inhibition at 10 µM,[36],3.1%
same,inhibition at 10 µM,[37],8.6%
same,inhibition at 10 µM,[38],14.6%
same,inhibition at 10 µM,[39],20.3%
same,inhibition at 10 µM,[40],-0.5%
same,inhibition at 10 µM,[41],57.9%
same,inhibition at 10 µM,[42],13.5%
same,inhibition at 10 µM,[43],7.1%
same,inhibition at 10 µM,[44],6.2%

# From paper PMC4844702, “Selective inhibition of the kinase DYRK1A by targeting its folding process” (Nature Communications, 2016)
